Assay results as given in publication PMC5743599 (Antiviral research, 2017).

Experiments:
HBV genotype C = assay: Primary efficacy study in HBV genotype C-infected huFRG KO mice; format: in vivo, hepatitis B virus
HBV genotype A = assay: Pilot/preliminary efficacy study in HBV genotype A-infected huFRG KO mice; format: in vivo, hepatitis B virus
Tolerability = format: in vivo, huFRG KO mice; settings: for weight recovery after the treatment phase: primary study, post-treatment
HBV = HBV transgenic mouse model; format: in vivo, hepatitis B virus; settings: HBV transgenic mice, 100 mg/kg daily IP; data not shown
[1] = Single and repeat dose maximum tolerated dose studies; format: in vivo, C57Bl/6 mice or huFRG KO mice
[2] = entecavir 1 mg/kg/day PO, Days 59-72, genotype C

Row | Compound | decrease in HBV titers after one week compared to control mice (HBV genotype C; 100 mg/kg/day IP, genotype C) [log] | decrease in HBV titers after two weeks of dosing compared to control mice (HBV genotype C; 100 mg/kg/day IP, genotype C) [log] | suppression of HBV viremia (average) after one week (HBV genotype A; 50 and 100 mg/kg/day IP, Days 160-173, vs pretreatment Day 159, genotype A) [log] | suppression of HBV viremia at week two (HBV genotype A; 50 and 100 mg/kg/day IP, surviving mice, genotype A) | decrease in HBV titers (trend) in pilot experiment (HBV genotype A; genotype A, #208 treated animals) [log] | deaths / moribundity in post-dosing phase of primary study (Tolerability; Day 87-88, one animal per group, not with certainty test article-related) | weight recovery after the treatment phase (Tolerability) | reduction of intrahepatic DNA accumulation (HBV) | reduction of serum viremia (HBV) | Dose-limiting toxicity ([1]; non-infected mice, IP) | maximum tolerated dose (MTD) ([1]; single and repeat IP injections up to seven days, male C57Bl/6 or huFRG KO mice) [mg/kg] | decrease in HBV titers after one week of treatment (HBV genotype C; [2]) [log] | decrease in HBV titers after two weeks (HBV genotype C; [2]) [log] | Viral titers rebounded to pretreatment levels by Day (HBV genotype A; after entecavir withdrawal (treatment days 71-84), genotype A) [days] | drop in HBV titers more than the control animals (HBV genotype A; entecavir 1.0 mg/kg PO two weeks, Days 70 to 85, genotype A, plasma) [log]
1 | CC(=Nc1ccccc1N)c1c(C)cc(=O)n(O)c1O [#208] | 1.6 | 1.4 | 1.1 | sustained | ~1 | found dead | some weight gain occurred | failed to reduce | failed to reduce | >10% weight loss, hypoactivity, unkempt appearance, feeling cool-to-touch, and distended abdomen | 100 |  |  |  | 
2 | C=C1[C@H](CO)[C@@H](O)C[C@@H]1n1cnc2c(=O)[nH]c(N)nc21 [entecavir, Entecavir, reference compound] |  |  |  |  |  |  | some weight gain occurred |  |  |  |  | 2.6 | 3.2 | ≤ 159 | 2.8
